Laboratory results: patent US11957687B2 (REGENERON PHARMACEUTICALS, INC., priority 2019, dated 2024)

What was measured:
HSD17B13 = HSD17B13 (Homo sapiens (Human), UniProt Q7Z5P4); experiment: HSD17B13 enzymatic inhibition assay (150 nM or 50 nM HSD17B13); type: biochemical; details: 50 nM HSD17B13; read-out: Inhibition of 50 nM of HSD17B13 IC50
HSD17B1 = HSD17B1 (Homo sapiens (Human), UniProt P14061); experiment: HSD17B1 enzymatic blocking assay; type: biochemical; details: 25 μM Estradiol, 500 μM NAD; read-out: Inhibition of HSD17B1 IC50
Sequence of HSD17B1 (P14061 other isoform, or with tags, fused parts or gaps): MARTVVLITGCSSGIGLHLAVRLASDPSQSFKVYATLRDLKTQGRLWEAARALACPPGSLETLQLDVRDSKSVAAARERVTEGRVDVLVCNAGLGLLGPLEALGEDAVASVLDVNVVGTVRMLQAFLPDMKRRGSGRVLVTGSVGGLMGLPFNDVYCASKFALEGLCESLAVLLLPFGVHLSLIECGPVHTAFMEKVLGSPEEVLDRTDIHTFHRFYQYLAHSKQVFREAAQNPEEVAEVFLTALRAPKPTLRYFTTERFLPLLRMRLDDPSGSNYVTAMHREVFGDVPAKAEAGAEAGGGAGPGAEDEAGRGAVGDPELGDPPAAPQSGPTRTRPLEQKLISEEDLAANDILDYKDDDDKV
Method: To screen compounds of the disclosure for their ability to block HSD17B1 function, an enzymatic blocking assay was performed. For the assay, HSD17B1 activity was measured by detecting NADH formation from oxidation of Estradiol using a NADH Glo luminescence assay (Promega, #Cat. No. G9062). […] Compounds were incubated with the enzyme for 30 minutes at room temperature. […] DMSO at a concentration of 0.5% was used as a negative control and a ‘no substrate’ control was used a positive control in the assay. Detection reagent was then added as per manufacturer's instructions, and the plate was subsequently incubated in the dark for 1 hour at room temperature, NADH generated was detected in the luminescence mode on the Envision Perkin Elmer plate reader. The IC50 values were determined using Dotmatics analysis software.

HSD17B2 = HSD17B2 (Homo sapiens (Human), UniProt P37059); experiment: HSD17B2 enzymatic blocking assay; type: biochemical; details: 1.8 μM Estradiol, 650 μM NAD; read-out: Inhibition of HSD17B2 IC50
Sequence of HSD17B2 (P37059 other isoform, or with tags, fused parts or gaps): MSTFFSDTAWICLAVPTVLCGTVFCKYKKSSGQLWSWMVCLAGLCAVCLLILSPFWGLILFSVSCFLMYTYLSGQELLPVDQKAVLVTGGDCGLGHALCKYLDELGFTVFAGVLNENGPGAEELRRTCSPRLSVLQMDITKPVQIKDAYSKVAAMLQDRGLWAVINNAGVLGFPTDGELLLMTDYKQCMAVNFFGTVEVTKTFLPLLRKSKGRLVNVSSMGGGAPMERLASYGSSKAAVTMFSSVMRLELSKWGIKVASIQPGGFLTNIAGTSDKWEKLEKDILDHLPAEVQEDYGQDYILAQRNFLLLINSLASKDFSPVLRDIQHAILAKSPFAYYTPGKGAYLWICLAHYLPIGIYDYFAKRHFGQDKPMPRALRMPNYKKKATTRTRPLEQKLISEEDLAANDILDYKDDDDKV
Method: To screen compounds of the disclosure for their ability to block HSD17B2 function, an enzymatic blocking assay was performed. For the assay, HSD17B2 activity was measured by detecting NADH formation from oxidation of Estradiol using a NADH Glo luminescence assay (Promega, #Cat. No. G9062). Compounds of the disclosure were evaluated in a dose titration assay where the compounds were titrated at 10-point dose curve using an Echo-555 liquid handling dispenser. HSD17B2 (SEQ ID NO: 3, expressed in mammalian cells) was added at a final concentration of 2 ng/μL in a buffer containing 50 mM Tris-HCl, pH 7.5, Pluronic F-127 0.05%, Tween20 0.01%, BSA 0.01% into a low volume white 384-well assay plate. Compounds were incubated with the enzyme for 15 min at 20° C. The assay reaction was then initiated by addition of 1.8 μM Estradiol substrate (Sigma, catalog #E2758-250MG, CAS: 50-28-2) and 650 μM NAD co-factor, and the reaction mixture was incubated for 45 min at 20° C. DMSO at a concentration of 0.5% was used as a negative control and a ‘no substrate’ control was used a positive control in the assay. Detection reagent was then added as per manufacturer's instructions, and the plate was subsequently incubated in the dark for 1 hour at room temperature, NADH generated was detected in the luminescence mode on the Envision Perkin Elmer plate reader. The IC50 values were determined using Dotmatics analysis software.

[1] = Microsome stability assay, human liver microsomes; type: in vitro ADME; details: 1 μM compound, 0.5 mg/mL microsomal protein; for microsomal CLint at 1 h, 1 µM / half-life at 1 h, 1 µM / microsomal CLint at 1 μM / half-life at 1 μM: human, human liver microsomes, pooled, NADPH, 37° C.; for microsomal CLint at 1 h, 1 µM / microsomal CLint at 1 μM: read-out: Microsome Stability Human liver microsomes Cl; for half-life at 1 h, 1 µM / half-life at 1 μM: read-out: Microsome Stability Human liver microsomes T½
In short: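 Compound at 1 μM incubated at 37° C with pooled human or mouse liver microsomes (0.5 mg/mL protein) plus NADPH regenerating system, sampled at 0–60 min; a 60-min no-NADPH incubation also included. Single replicate; LC/MS/MS disappearance from analyte/internal standard peak area ratios, without standard curve.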

[2] = Microsome stability assay, mouse liver microsomes; type: in vitro ADME; details: 1 μM compound, 0.5 mg/mL microsomal protein
Method: Compounds of the disclosure were screened in microsome stability assays. For the screen, test compounds were incubated at 37° C. with either human liver microsomes (Corning; #452117) or mouse liver microsomes (XenoTech; #M1000), pooled from multiple donors, at 1 μM in the presence of a NADPH regenerating system at 0.5 mg/mL microsomal protein. Positive controls included in the assay were testosterone (3A4 substrate), propafenone (2D6) and diclofenac (2C9). Samples were removed at different time points (0, 5, 10, 20, 30 and 60 minutes) and immediately mixed with cold acetonitrile containing internal standard (IS, 200 ng/mL tolbutamide and 200 ng/mL labetalol). Test compounds incubated with microsomes for 60 minutes without the NADPH regenerating system was also included. A single point for each test condition (n=1) was obtained, and samples were analyzed by LC/MS/MS. Disappearance of the test compound was assessed based on peak area ratios of analyte/IS (no standard curve).

Sequence of HSD17B13 (Q7Z5P4 other isoform, or with tags, fused parts or gaps): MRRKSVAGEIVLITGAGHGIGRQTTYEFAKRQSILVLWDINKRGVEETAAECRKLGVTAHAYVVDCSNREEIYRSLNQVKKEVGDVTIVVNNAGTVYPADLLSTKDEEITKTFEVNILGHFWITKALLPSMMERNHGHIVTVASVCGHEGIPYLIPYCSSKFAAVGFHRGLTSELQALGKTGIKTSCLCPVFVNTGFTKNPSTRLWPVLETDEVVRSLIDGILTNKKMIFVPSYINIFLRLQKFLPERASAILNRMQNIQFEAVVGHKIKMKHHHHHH

Cc1ccc2c(c1)Oc1cc(C)ccc1C2NC(=O)c1cc(C2CCCCC2)c(C(F)(F)F)[nH]c1=O [Compound 460, 5-cyclohexyl-N-(3,6-dimethyl-9H-xanthen-9-yl)-2-oxo-6-(trifluoromethyl)-1,2-dihydropyridine-3-carboxamide]
IC50 (HSD17B13): 0.03 µM
IC50 (HSD17B1): 12.9 µM
IC50 (HSD17B2): 25 µM

CCc1cc(C(=O)NC2c3ccc(C)cc3Oc3cc(C)ccc32)c(=O)[nH]c1C(F)(F)F [Compound 176, N-(3,6-dimethyl-9H-xanthen-9-yl)-5-ethyl-2-oxo-6-(trifluoromethyl)-1,2-dihydropyridine-3-carboxamide]
IC50 (HSD17B13): 0.02 µM
IC50 (HSD17B1): 6.43 µM
IC50 (HSD17B2): 28.3 µM

COc1ccc(C(NC(=O)c2ccc(C(F)(F)F)[nH]c2=O)c2ccccc2)cc1 (centres unmarked) [Compound 26, N-((4-methoxyphenyl)(phenyl)methyl)-2-oxo-6-(trifluoromethyl)-1,2-dihydropyridine-3-carboxamide]
IC50 (HSD17B13): 1.2 µM
Microsome Stability Human liver microsomes % Remaining @60 min [1]: 16.00%
microsomal CLint at 1 h, 1 µM [1]: 62.4 µL/min/mg
half-life at 1 h, 1 µM [1]: 22.2 min
IC50 (HSD17B2): 22.7 µM

O=C(NC(c1ccc(C(F)(F)F)cc1)c1ccc(C(F)(F)F)cc1)c1ccc(C(F)(F)F)[nH]c1=O [Compound 14, N-(bis(4-(trifluoromethyl)phenyl)methyl)-2-oxo-6-(trifluoromethyl)-1,2-dihydropyridine-3-carboxamide]
IC50 (HSD17B13): 2.81 µM
Microsome Stability Human liver microsomes % Remaining @60 min [1]: 100.00%
microsomal CLint at 1 μM [1]: < 9.6 µL/min/mg
half-life at 1 μM [1]: > 145 min
IC50 (HSD17B2): 14.2 µM

O=C(NC(c1ccccc1)c1ccc(CC(F)(F)F)cc1)c1ccc(C(F)(F)F)[nH]c1=O (centres unmarked) [Compound 12, 2-oxo-N-(phenyl(4-(2,2,2-trifluoroethyl)phenyl)methyl)-6-(trifluoromethyl)-1,2-dihydropyridine-3-carboxamide]
IC50 (HSD17B13): 0.39 µM
Microsome Stability Human liver microsomes % Remaining @60 min [1]: 84.70%
microsomal CLint at 1 μM [1]: < 9.6 µL/min/mg
half-life at 1 μM [1]: > 145 min
Microsome Stability Mouse liver microsomes % Remaining @60 min ([2]; 60 min): 56.90%
microsomal CLint at 1 h, 1 µM ([2]; mouse, mouse liver microsomes, pooled, NADPH, 37° C., read-out: Microsome Stability Mouse liver microsomes Cl): 18.6 µL/min/mg
half-life at 1 h, 1 µM ([2]; mouse, mouse liver microsomes, pooled, NADPH, 37° C., read-out: Microsome Stability Mouse liver microsomes T½): 74.5 min
IC50 (HSD17B2): 15.6 µM

O=C(NC1CCc2ccccc21)c1ccc(C(F)(F)F)[nH]c1=O (centres unmarked) [Compound 63, N-(2,3-dihydro-1H-inden-1-yl)-2-oxo-6-(trifluoromethyl)-1,2-dihydropyridine-3-carboxamide]
IC50 (HSD17B13): 3.68 µM
IC50 (HSD17B2): > 100 µM

O=C(NC(c1ccc(OC(F)F)cc1)c1ccc(OC(F)F)cc1)c1ccc(C(F)(F)F)[nH]c1=O [Compound 22, N-(bis(4-(difluoromethoxy)phenyl)methyl)-2-oxo-6-(trifluoromethyl)-1,2-dihydropyridine-3-carboxamide]
IC50 (HSD17B13): 0.89 µM
IC50 (HSD17B2): 12.8 µM

COc1ccc(C(C)(NC(=O)c2ccc(C(F)(F)F)[nH]c2=O)c2ccc(OC)cc2)cc1 [Compound 20A, N-(1,1-bis(4-methoxyphenyl)ethyl)-2-oxo-6-(trifluoromethyl)-1,2-dihydropyridine-3-carboxamide]
IC50 (HSD17B13): 1.56 µM
IC50 (HSD17B2): 2.27 µM

Cc1ccc2c(c1)-c1cc(C)ccc1C2NC(=O)c1ccc(C(F)(F)F)[nH]c1=O [Compound 43, N-(3,6-dimethyl-9H-fluoren-9-yl)-2-oxo-6-(trifluoromethyl)-1,2-dihydropyridine-3-carboxamide]
IC50 (HSD17B13): 0.49 µM
Microsome Stability Human liver microsomes % Remaining @60 min [1]: 31.30%
microsomal CLint at 1 h, 1 µM [1]: 39.8 µL/min/mg
half-life at 1 h, 1 µM [1]: 34.8 min
IC50 (HSD17B2): 6.59 µM

COc1ccc(C(NC(=O)c2ccc(C(F)(F)F)[nH]c2=O)c2ccc(OC)cc2)cc1 [Compound 24, N-(bis(4-methoxyphenyl)methyl)-2-oxo-6-(trifluoromethyl)-1,2-dihydropyridine-3-carboxamide]
IC50 (HSD17B13): 0.6 µM
Microsome Stability Human liver microsomes % Remaining @60 min [1]: 2.00%
microsomal CLint at 1 h, 1 µM [1]: 131 µL/min/mg
half-life at 1 h, 1 µM [1]: 10.6 min
IC50 (HSD17B2): 20.6 µM

O=C(NC1c2ccc(F)cc2-c2cc(F)ccc21)c1ccc(C(F)(F)F)[nH]c1=O [Compound 44, N-(3,6-difluoro-9H-fluoren-9-yl)-2-oxo-6-(trifluoromethyl)-1,2-dihydropyridine-3-carboxamide]
IC50 (HSD17B13): 0.53 µM
IC50 (HSD17B2): 12.8 µM

CCc1ccc(C(NC(=O)c2ccc(C(F)(F)F)[nH]c2=O)c2ccccc2)cc1 (centres unmarked) [Compound 4A, N-((4-ethylphenyl)(phenyl)methyl)-2-oxo-6-(trifluoromethyl)-1,2-dihydropyridine-3-carboxamide]
IC50 (HSD17B13): 0.55 µM
Microsome Stability Human liver microsomes % Remaining @60 min [1]: 1.12%
microsomal CLint at 1 h, 1 µM [1]: 156 µL/min/mg
half-life at 1 h, 1 µM [1]: 8.86 min
IC50 (HSD17B2): 11.7 µM

O=C(NC1c2ccccc2Oc2ccccc21)c1ccc(C(F)(F)F)[nH]c1=O [Compound 1A, 2-oxo-6-(trifluoromethyl)-N-(9H-xanthen-9-yl)-1,2-dihydropyridine-3-carboxamide]
IC50 (HSD17B13): 0.53 µM
Microsome Stability Human liver microsomes % Remaining @60 min [1]: 1.00%
microsomal CLint at 1 h, 1 µM [1]: 176 µL/min/mg
half-life at 1 h, 1 µM [1]: 7.87 min
IC50 (HSD17B2): 14.5 µM

O=C(NC(Cc1ccccc1)c1ccc(Cl)cc1)c1ccc(C(F)(F)F)[nH]c1=O (centres unmarked) [Compound 19A, N-(1-(4-chlorophenyl)-2-phenylethyl)-2-oxo-6-(trifluoromethyl)-1,2-dihydropyridine-3-carboxamide]
IC50 (HSD17B13): 0.99 µM
Microsome Stability Human liver microsomes % Remaining @60 min [1]: 8.05%
microsomal CLint at 1 h, 1 µM [1]: 88.6 µL/min/mg
half-life at 1 h, 1 µM [1]: 15.6 min
IC50 (HSD17B2): 13.2 µM

O=C(NC(c1ccccc1)c1ccc(C(F)(F)F)cc1)c1ccc(C(F)(F)F)[nH]c1=O (centres unmarked) [Compound 28, N-(phenyl(4-(trifluoromethyl)phenyl)methyl)-2-oxo-6-(trifluoromethyl)-1,2-dihydropyridine-3-carboxamide]
IC50 (HSD17B13): 1.3 µM
Microsome Stability Human liver microsomes % Remaining @60 min [1]: 94.00%
microsomal CLint at 1 μM [1]: < 9.6 µL/min/mg
half-life at 1 μM [1]: > 145 min
IC50 (HSD17B2): 12.6 µM

COc1ccc2c(c1)-c1cc(OC)ccc1C2NC(=O)c1ccc(C(F)(F)F)[nH]c1=O [Compound 46, N-(3,6-dimethoxy-9H-fluoren-9-yl)-2-oxo-6-(trifluoromethyl)-1,2-dihydropyridine-3-carboxamide]
IC50 (HSD17B13): 1.07 µM
IC50 (HSD17B2): 38.1 µM

C=Cc1ccc(C(NC(=O)c2ccc(C(F)(F)F)[nH]c2=O)c2ccccc2)cc1 (centres unmarked) [Compound 3A, 2-oxo-N-(phenyl(4-vinylphenyl)methyl)-6-(trifluoromethyl)-1,2-dihydropyridine-3-carboxamide]
IC50 (HSD17B13): 1.3 µM
IC50 (HSD17B2): 13.2 µM

O=C(NC(c1ccccc1)c1ccc(O)cc1)c1ccc(C(F)(F)F)[nH]c1=O (centres unmarked) [Compound 19, N-((4-hydroxyphenyl)(phenyl)methyl)-2-oxo-6-(trifluoromethyl)-1,2-dihydropyridine-3-carboxamide]
IC50 (HSD17B13): 1.91 µM
Microsome Stability Human liver microsomes % Remaining @60 min [1]: 49.80%
microsomal CLint at 1 h, 1 µM [1]: 20.2 µL/min/mg
half-life at 1 h, 1 µM [1]: 68.6 min
IC50 (HSD17B2): 33.6 µM
